Here are results for 2 molecules from patent US7311878B2, “Method and apparatus for producing synergistic biocide” (Hercules Incorporated, priority 2005, dated 2007).

For the experiment, the system named is multi-species bacterial consortium. Description: dose-challenge efficacy assay against bacterial consortium, spread plate cell enumeration. Conditions: for effect on cell counts of the consortium (in words) / population size of bacterial consortium, log10 colony counts: Example 1; for effect on cell counts of the consortium (in words): 0.5 mg/l total, 20 minutes exposure, pH 5 to 8; for population size of bacterial consortium, log10 colony counts: 20 minute exposure, total halogen 0.5 mg/l, average of three values; for numbers of surviving cells, Log10 transformations of the plate counts: Example 2, 20-minute contact time, 0.5 mg/l (as Cl2) active, initial approx. 2×10^5 bacteria per milliliter. The class given is cell-based. The method, then: The efficacies of the individual haloamines and the synergistic combination produced with the apparatus described above were determined using a consortium of microorganisms and a dose-response protocol. Concentrations of monochloramine and dichloramine reported herein are in units of milligrams per liter as measured by Cl2 analysis; the Hach DPD chlorine test (Hach Company, Loveland, Colo.) was used to measure the total available chlorine concentrations and are expressed as milligrams per liter as Cl2. The DPD assay is based on the amount of chlorine in a sample that reacts with N,N-diethyl-p-phenylenediamine oxalate. To determine the amount of monochloramine or dichloramine in a sample, an aliquot of the sample was transferred to a clean container, diluted with deionized water, as appropriate, and assayed according to the Hach DPD chlorine test. The assay measures the total amount of chlorine that can react with the indicator reagent. The reaction is measured by determining the absorbance of light at 530 nm. Therefore, for the purposes of this invention, a quantity of monochloramine or dichloramine presented in units of mg/l signifies that amount of monochloramine or dichloramine that contains the designated amount of milligrams per liter of reactive chlorine. Thus, for example, a sample treated with 1 mg/l monochloramine or dichloramine will contain a total available chlorine concentration of 1 mg/l. Similarly, a sample treated with 0.5 mg/l monochloramine and 0.5-mg/l dichloramine will contain a total available chlorine concentration of 1 mg/l.
The materials were tested against multi-species bacterial consortium (also referred to as an artificial consortium) containing approximately equal numbers of six bacterial strains. Although the test strains are representative of organisms present in paper mill systems; the effect is not limited to these bacteria. Two of the strains were Klebsiella pneumonia (ATCC 13883) and Pseudomonas aeruginosa (ATCC 15442). The other four strains were isolated from papermill systems and have been presumptively identified as Curtobacterium flaccumfaciens, Burkholderia cepacia, Bacillus maroccanus, and Pseudomonas glathei. Each strain was grown on Tryptic Soy Agar overnight at 37° C. Sterile cotton-tipped swabs were used to aseptically transfer cells to a sterile solution of saline. Each cell suspension was prepared to a desired concentration as measured by turbidity before equal volumes of each of the cell suspensions were then combined to prepare the consortium.
A sample of the biocide solution was aseptically collected at the end of line 11 after the apparatus had been operated for approximately 20 minutes and used in an efficacy assay. Samples of the monochloramine solution in reservoir 3 and the dichloramine solution in mixing chamber 16 were also collected to test efficacy of each active. In the assay, the bacterial consortium was prepared as described above and an appropriate quantity of the cell suspension was aseptically transferred to sterile saline with pH adjusted to selected values. The cells were then challenged with the haloamines and synergistic combinations of the haloamines. In each case, the total halogen concentration was 0.5 mg/l (as […]). In this example, in addition to untreated control, the consortium was exposed to the following treatments: (1) 0.5 mg/l of monochloramine; 0.5 mg/l dichloramine; (3) 0.25 mg/l monochloramine plus 0.25 mg/l dichloramine; and (4) 0.4 mg/l monochloramine plus 0.1 mg/l dichloramine. The consortium was exposed to the haloamines for 20 minutes before samples were removed for cell enumeration by the spread plate technique. […] The control counts presented in Table 1 are those obtained after a 20 minute exposure to saline with pH adjusted to the indicated value.
The dose-challenge studies were carried out as previously described using a freshly prepared bacterial consortium. Sterile saline was prepared with pH adjusted to values of 5.0, 6.0, 7.0 and 8.0. […]

Structures are written as SMILES. Marks after values point to notes of the source that are not given here.

For `ClNCl` [DCA, dichloramine], the “effect on cell counts of the consortium (in words)” value is on record as “decreased cell counts”. Besides, where the note is “pH 5 saline”, the “population size of bacterial consortium, log10 colony counts” value (shortened to “population size … log10 colony counts”) came to 3.50 log10 colony counts and the “numbers of surviving cells, Log10 transformations of the plate counts” value amounted to 3.56 Log10. In addition, under “pH 6 saline”, the “population size … log10 colony counts” value is 5.16 log10 colony counts and the “numbers of surviving cells, Log10 transformations of the plate counts” value is given as 5.16* Log10. Moreover, under “pH 7 saline”, the “population size … log10 colony counts” value was determined as 5.01 log10 colony counts and the “numbers of surviving cells, Log10 transformations of the plate counts” value came out at 5.07 Log10. Also, under “pH 8 saline”, the “population size … log10 colony counts” value was determined as 5.19 log10 colony counts and the “numbers of surviving cells, Log10 transformations of the plate counts” value was found to be 5.24 Log10.

On to `NCl` [MCA, monochloramine], for which the “effect on cell counts of the consortium (in words)” value is “decreased cell counts”. Further, under “pH 5 saline”, the “population size … log10 colony counts” value was determined as 4.93 log10 colony counts and the “numbers of surviving cells, Log10 transformations of the plate counts” value is on record as 5.03 Log10. Where the note is “pH 6 saline”, the “population size … log10 colony counts” value was determined as 4.94 log10 colony counts and the “numbers of surviving cells, Log10 transformations of the plate counts” value amounted to 4.84 Log10. In addition, where the note is “pH 7 saline”, the “population size … log10 colony counts” value came out at 5.06 log10 colony counts and the “numbers of surviving cells, Log10 transformations of the plate counts” value was found to be 5.13 Log10. Where the note is “pH 8 saline”, the “population size … log10 colony counts” value is reported as 5.36 log10 colony counts and the “numbers of surviving cells, Log10 transformations of the plate counts” value is on record as 5.41 Log10.
